Tests used:
[1] = molecular target: T1, Glycine receptor subunit alpha-1 (Rattus norvegicus, UniProt P07727); experiment: Displacement of [3H]Strychnine from glycine receptor in rat brain synaptic membranes; type: cell membranes
T1 sequence (P07727 whole entry): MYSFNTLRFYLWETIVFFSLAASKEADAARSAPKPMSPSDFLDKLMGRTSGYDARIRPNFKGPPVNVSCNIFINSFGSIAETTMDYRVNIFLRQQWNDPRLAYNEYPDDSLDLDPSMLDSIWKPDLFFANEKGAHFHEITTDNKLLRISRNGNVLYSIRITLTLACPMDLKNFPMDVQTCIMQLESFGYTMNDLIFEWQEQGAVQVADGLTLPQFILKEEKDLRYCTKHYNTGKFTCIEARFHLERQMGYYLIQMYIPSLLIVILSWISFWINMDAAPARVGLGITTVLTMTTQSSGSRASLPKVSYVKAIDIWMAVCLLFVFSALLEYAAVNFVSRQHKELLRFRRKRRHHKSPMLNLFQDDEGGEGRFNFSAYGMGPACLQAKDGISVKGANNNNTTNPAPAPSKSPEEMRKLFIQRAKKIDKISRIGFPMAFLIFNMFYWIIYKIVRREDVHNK

[2] = test system: Mus musculus; experiment: Induction of clonic convulsions in ip dosed COBS-CDI mouse measured after 3 hrs; type: functional
[3] = test system: Mus musculus; experiment: Induction of tonic convulsions in ip dosed COBS-CDI mouse measured after 3 hrs; type: functional
[4] = Toxicity in ip dosed COBS-CDI mouse assessed as mortality measured after 3 hrs; type: organism-based; settings: in vivo

CC(=O)N1CC2(CCCC2)c2ccccc21
IC50 [1]: > 1000 µM | ED50 [2]: 1650 µmol/kg | ED50 [3]: > 7420 µmol/kg | LD50 at 3 h [4]: 6880 µmol/kg

CC(=O)N1CC2(CCN(C)C2)c2ccccc21 (configuration not stated)
IC50 [1]: 23.6 µM | ED50 [2]: 79.6 µmol/kg | ED50 [3]: 83.9 µmol/kg | LD50 at 3 h [4]: 94.8 µmol/kg

CC(=O)N1CC2(CCN(Cc3ccccc3)C2)c2ccccc21.O=C(O)C(=O)O (configuration not stated)
IC50 [1]: 31 µM | ED50 [2]: 252 µmol/kg | ED50 [3]: > 1010 µmol/kg | LD50 at 3 h [4]: 505 µmol/kg

C=CCN1CCC2(C1)CN(C(C)=O)c1ccccc12.O=C(O)C(=O)O (configuration not stated)
IC50 [1]: 67.9 µM | ED50 [2]: 300 µmol/kg | ED50 [3]: 434 µmol/kg | LD50 at 3 h [4]: 396 µmol/kg

CC(=O)N1CC2(CCNC2)c2ccccc21.O=C(O)C(=O)O (configuration not stated)
IC50 [1]: 295 µM | ED50 [2]: 542 µmol/kg | ED50 [3]: 746 µmol/kg | LD50 at 3 h [4]: 687 µmol/kg

CN1CCC2(CNc3ccccc32)C1 (configuration not stated)
IC50 [1]: 282 µM | ED50 [2]: 365 µmol/kg | ED50 [3]: 412 µmol/kg | LD50 at 3 h [4]: 412 µmol/kg

CC(=O)N1CCc2ccccc21
IC50 [1]: > 1000 µM | ED50 [2]: > 2480 µmol/kg | ED50 [3]: > 2480 µmol/kg | LD50 at 3 h [4]: 1400 µmol/kg

CC(=O)N1c2ccccc2C(C)(C)C1C (racemic)
IC50 [1]: > 1000 µM | ED50 [2]: < 1970 µmol/kg | ED50 [3]: > 3940 µmol/kg | LD50 at 3 h [4]: 2830 µmol/kg
